Columns and labels:
[1] = biological target: T1, A-DA lipid probe targets in A549 cells (Homo sapiens, UniProt Q8IZV5); experiment: In situ competitive SILAC profiling with A-DA probe in (PMA-stimulated) A549 cells; details: A549 cells, A-DA probe
T1 sequence (Q8IZV5 1-341): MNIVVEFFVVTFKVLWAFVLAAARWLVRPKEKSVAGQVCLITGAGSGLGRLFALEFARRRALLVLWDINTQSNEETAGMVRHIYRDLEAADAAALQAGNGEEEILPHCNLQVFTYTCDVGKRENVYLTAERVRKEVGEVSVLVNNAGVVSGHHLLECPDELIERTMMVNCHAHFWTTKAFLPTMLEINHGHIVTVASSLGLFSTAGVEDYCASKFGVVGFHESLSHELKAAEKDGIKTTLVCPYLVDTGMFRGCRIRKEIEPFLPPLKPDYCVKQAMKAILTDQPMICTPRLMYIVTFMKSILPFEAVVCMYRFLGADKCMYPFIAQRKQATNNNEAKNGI

humanized rat FAAH = biological target: T2, humanized rat FAAH (Rattus norvegicus, UniProt P97612, A377T/F194Y/I491V/L192F/S435N/V495M); experiment: FAAH activity by AEA hydrolysis, purified enzyme; assay type: biochemical; details: for inhibition of FAAH activity (AEA hydrolysis): 50 or 100 μM; for IC50: read-out: IC50 against purified recombinant FAAH
T2 sequence (P97612 30-579 L192F/F194Y/A377T/S435N/I491V/V495M limits assumed): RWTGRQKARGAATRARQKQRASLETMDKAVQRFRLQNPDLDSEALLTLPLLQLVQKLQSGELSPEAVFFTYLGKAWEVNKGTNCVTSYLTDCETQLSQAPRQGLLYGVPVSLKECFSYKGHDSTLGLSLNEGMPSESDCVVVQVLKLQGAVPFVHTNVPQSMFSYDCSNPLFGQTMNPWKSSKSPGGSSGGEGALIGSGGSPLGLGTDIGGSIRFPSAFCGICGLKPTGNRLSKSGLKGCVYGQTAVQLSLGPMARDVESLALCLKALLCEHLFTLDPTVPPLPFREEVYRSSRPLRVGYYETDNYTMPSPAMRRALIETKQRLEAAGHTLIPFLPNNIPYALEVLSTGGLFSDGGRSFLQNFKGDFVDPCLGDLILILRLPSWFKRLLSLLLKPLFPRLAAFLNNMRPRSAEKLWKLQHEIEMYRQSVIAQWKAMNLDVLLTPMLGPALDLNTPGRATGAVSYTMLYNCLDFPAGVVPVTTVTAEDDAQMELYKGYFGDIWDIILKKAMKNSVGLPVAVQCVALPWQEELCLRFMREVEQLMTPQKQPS
Description: (§1) FAAH activity was measured by AEA hydrolysis: The membrane fraction of Neuro2a lysates (200 μL, 2.0 mg/mL) was incubated with DMSO or the test compound (1.0-250 μM) at 37° C. After 15 min, AEA-d8 (25 μM) was added and the samples were incubated for an additional 30 min and then quenched by the addition of two volumes of CHCl3:MeOH (2:1) containing pentadecanoic acid (PDA) (1.0 nmol) as an internal standard. After centrifuging (2,000×g, 5 min, 4° C.) to separate the organic and aqueous layers, the lower organic layer was transferred to a clean vial and analyzed by LC/MS as previously described. (Long et al., 2009) Pure humanized rat FAAH (Mileni et al., 2008) (5.0 ng/μL) was assayed in the same manner. Product levels were quantified by determining peak areas in relation to PDA.

[2] = biological target: T3, endogenous FAAH in Neuro2a lysates (Mus musculus, UniProt O08914); experiment: FAAH activity by AEA hydrolysis in Neuro2a lysates; assay type: biochemical; details: for IC50: read-out: IC50 against endogenous FAAH in Neuro2a lysates; for inhibition of FAAH activity in Neuro2a lysates: up to 250 μM
T3 construct: endogenous in cells; host or cells: Neuro2a membrane fraction
T3 sequence (O08914 1-579): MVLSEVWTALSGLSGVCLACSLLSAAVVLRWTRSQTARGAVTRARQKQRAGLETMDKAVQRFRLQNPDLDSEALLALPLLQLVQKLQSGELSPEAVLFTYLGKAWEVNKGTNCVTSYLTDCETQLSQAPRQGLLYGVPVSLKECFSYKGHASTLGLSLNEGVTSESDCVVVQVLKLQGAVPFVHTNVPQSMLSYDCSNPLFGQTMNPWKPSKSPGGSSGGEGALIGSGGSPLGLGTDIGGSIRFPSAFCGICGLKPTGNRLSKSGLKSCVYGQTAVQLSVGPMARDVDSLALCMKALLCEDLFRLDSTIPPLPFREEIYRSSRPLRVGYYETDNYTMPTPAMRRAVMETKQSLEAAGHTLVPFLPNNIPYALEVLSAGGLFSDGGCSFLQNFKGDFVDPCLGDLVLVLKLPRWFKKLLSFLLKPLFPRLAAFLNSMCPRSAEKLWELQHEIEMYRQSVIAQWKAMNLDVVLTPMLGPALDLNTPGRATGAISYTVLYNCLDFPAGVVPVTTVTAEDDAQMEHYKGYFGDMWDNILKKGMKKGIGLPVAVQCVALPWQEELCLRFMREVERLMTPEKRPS
Description: as §1

Structure (SMILES)	SILAC ratio, RDH10 (Q8IZV5) ([1]; competitor 25 μM)	inhibition of FAAH activity (AEA hydrolysis) (humanized rat FAAH)	IC50 (humanized rat FAAH) [µM]	IC50 [2] [µM]	inhibition of FAAH activity in Neuro2a lysates [2]	SILAC ratio, RDH10 (Q8IZV5) ([1]; competitor 5 μM)	SILAC ratio, RDH10 (Q8IZV5) ([1]; competitor 50 μM)
O=C(/C=C/c1cccnc1)NCCCCC1CCN(C(=O)c2ccccc2)CC1 [FK-866, reference compound]	3.1	–	–	–	–	–	–
CN1CCN(C(=O)c2c(-c3ccccc3)c3cc([N+](=O)[O-])ccc3n2C)CC1 [KML110, (1-Methyl-5-nitro-3-phenyl-1H-indol-2-yl)(4-methylpiperazin-1-yl)methanone]	–	do not substantially inhibit	> 100	> 100	minimal inhibition	–	–
CN1CCN(C(=O)c2[nH]c3ccc([N+](=O)[O-])cc3c2-c2ccccc2)CC1 [MJN228, (4-Methylpiperazin-1-yl)(5-nitro-3-phenyl-1H-indol-2-yl)methanone]	–	do not substantially inhibit	> 100	> 100	minimal inhibition	–	–
C=CCN(C)CCCCCCOc1ccc(C(=O)c2ccc(Br)cc2)c(F)c1 [Ro488071]	–	–	–	–	–	1.9	2.8

Source: patent US10168342B2, “Lipid probes and uses thereof” (THE SCRIPPS RESEARCH INSTITUTE, priority 2015, dated 2019)
